The values below come from US20250296942A1, “Phosphonate-Based Coordination Complexes and Methods of Preparation and Use Thereof” (University of Puerto Rico, priority 2021, published 2025).

As a reminder, the viability is a read-out of living cells in per cent, often relative to untreated cells. Broadly, the IC50 is the point on the concentration scale where inhibition reaches its midpoint.

Like-named read-outs stand apart in the source and are kept apart here. Bounds are passed on as bounds.

Series [1] in a line: Release of letrozole from drug-loaded 2,2′-BPBPA-Ca in FaSSGF. In kind it is physicochemical. The settings on record: 37° C., 150 rpm, duplicate. As for the experimental part: LET release curve from 2,2′-BPBPA-Ca. The release curve of LET from 2,2′-BPBPA-Ca was assessed in FaSSGF. A calibration curve for LET in FaSSGF was previously prepared; the lambda max (λmax) was detected at 238 nm (Supporting Information). About 100 mL of FaSSGF were placed in a 250-mL beaker and left in constant stirring at 37° C. (150 rpm).
(§1) Subsequently, […] of powdered drug-loaded 2,2′-BPBPA-Ca (experimental) were placed into the FaSSGF solution. After each time point (0, 1, 3, 6, 24, 48, and 72 h), an aliquot (1 mL) was taken out and diluted in a 5 mL volumetric flask. An aliquot was taken out before adding the drug-loaded material to record the first time point (0 h). Then, the absorbance was measured at 238 nm to determine the amount (%) of LET release from the 2,2′-BPBPA-Ca.
TGA thermographs for these drug-loaded materials were collected to determine the amount of LET loaded into the channels of 2,2′-BPBPA and nano-Ca@2,2′-BPBPA (20-21%, FIG. 8B). Furthermore, the release capacity of these drug-loaded BPCCs was assessed in physiological conditions (FaSSGF, pH=1.60) at 37° C. The LET release from 2,2′-BPBPA-Ca was determined by measuring the absorption of the supernatant at the lambda max (λmax=[…]) and quantifying the increase in the LET concentration over time.
as §1, with “Release experiment. […] About 100 mL of FaSSGF were placed in a 250-mL beaker and left in constant stirring at 37° C. (150 rpm). Subsequently,” for “Subsequently,”, “2,2′-BPBPA-Ca. The release curve of LET (control) in FaSSGF was used for comparison.” for “2,2′-BPBPA-Ca.”

The subject of series [2] is human breast cancer MDA-MB-231 cell line. Briefly: AlamarBlue cytotoxicity, RISE and nano-Ca@RISE, MDA-MB-231. The format is cell-based. To be noted: for viability at 35 µM / viability at 40 µM / viability at 45 µM / viability at 50 µM / IC50: Homo sapiens; for viability at 35 µM / viability at 40 µM / viability at 45 µM / viability at 50 µM: read-out: Relative cell viability (% RCL), MDA-MB-231. As for the experimental part:
Cell culture methods. The MDA-MB-231 cell line was incubated with DMEM, 1% Pen-Strep, and 10% FBS at 37° C. in 5% CO2. The hFOB 1.19 cell line was incubated with 1:1 DMEM:F-12, 0.3 mg/mL G418, and 10% FBS at 34° C. in 5% CO2. Cell passages were performed weekly at 80% of cell confluency, media was exchanged twice a week.
Cell treatments. Both cell lines were treated with RISE (control) and nano-Ca@RISE (experimental). […]. Both cell lines (MDA-MB-231 and hFOB 1.19) were seeded in 96 well plates at 2.5×10^5 cell/mL. The cells were incubated for 24 h at 37° C. (MDA-MB-231) and 34° C. (hFOB 1.19), respectively. After the initial incubation period, both cell lines were treated with 100 μL of the RISE solutions previously prepared, and incubation was performed for 24, 48, and 72 h at the respective incubation temperatures. For both cell lines, media (MDA-MB-231: DMEM, Pen-Strep) and (hFOB 1.19: DMEM, F-12, G418) were used with control groups. AlamarBlue® assay was utilized to determine cell proliferation, for this, 10% of AlamarBlue® solution in PBS was prepared. Finally, the media was removed from the 96 well plates, 100 μL of 10% AlamarBlue® solution was added, and the cells were incubated for 4 h at the same previously mentioned conditions. After the AlamarBlue® assay, the fluorescence (λexc=560 nm, λem=590 nm) was evaluated employing an Infinite M200 PRO Tecan Microplate Reader. […]. The nonlinear regression method using Graph Pad Prism 8 was applied to fit the dose-response curves (% cell live vs concentration) and determined the IC50 values for RISE.
[…]. Treatments at these concentrations were carried out at 24, 48, and 72 h for RISE and nano-Ca@RISE. The cell seeding and AlamarBlue® assay were completed as described above for the IC50 determination in both cell lines. […]. All experiments were performed in triplicates and the data was statistically treated using mean, standard deviation, and the coefficient of variation percentage (% CV).
Cell culture methods for the MDA-MB-231 cell line. This cell line was grown in Dulbecco's Modified Eagle's Medium (DMEM) supplemented with 10% fetal bovine serum (FBS) and 1% penicillin-streptomycin (Pen-Strep), incubated at 37° C. and 5% CO2. Cell passage and cell treatment were performed at 80% of cell confluency. The completed growth media was exchanged every two days.
Cell seeding. The MDA-MB-231 and hFOB 1.19 cell lines were seeded in 96 well plates at a density of 2.5×10^5 cells/mL, incubation was carried out for 24 h at 37° C. for MDA-MB-231 and 34° C. for osteoblast hFOB 1.19, in 5% CO2. The experiments were conducted in triplicates, three 96 well plates were made for each treatment period (24, 48, and 72 h).
Cell treatment. To determine the half-maximal inhibitory concentration (IC50), for both cell lines, two-fold serial dilutions of RISE (0-200 μM) were prepared. To assess the relative cell live (% RCL) were employed selected […] (50, 45, 40, and 35 μM) of RISE and nano-Ca@RISE for MDA-MB-231 and hFOB 1.19 cell lines. For this, after the seeding, 100 μL of RISE and nano-Ca@RISE were used to treat the cells. The control groups were treated with just media. Both cell lines were incubated for 24, 48, and 72 h after RISE and nano-Ca@RISE solutions were added.
AlamarBlue@assay. For both cell lines, after the 24, 48, and 72 h of treatment, the media was removed from the 96 well plates. Subsequently, 100 μL of 10% AlamarBlue® solution was added and incubation was carried out for 4 h. The fluorescence (λexc=570 nm, λem=590 nm) was measured employing an Infinite M200 PRO Tecan Microplate Reader. […]. The IC50 curves and the % RCL values were plotted using the Graph Pad Prism 8 program.
A general note: Resazurin is reduced to fluorescent resorufin, in cell work by metabolically active cells.

Take `N#Cc1ccc(C(c2ccc(C#N)cc2)n2cncn2)cc1` [LET, letrozole]: the “Percentage (%) of letrozole (LET) released, Mean” value in series [1] (1 h) worked out at 65%; in series [1] (3 h), 72%; in series [1] (6 h), 75%; in series [1] (24 h), 93%; in series [1] (48 h), 94%; in series [1] (72 h) it was 94%.
Regarding `O=P(O)(O)C(O)(Cc1cccnc1)P(=O)(O)O` [RISE, Monosodium risedronate hemipentahydrate], the viability at 35 µM was 101 ± 2% in series [2] (MDA-MB-231, 24 h, 35 μM, 24 h); 100 ± 2% in series [2] (MDA-MB-231, 48 h, 35 μM, 48 h); about 100% in series [2] (MDA-MB-231, 72 h, 35 μM, 72 h). Besides, the viability at 40 µM in series [2] (MDA-MB-231, 24 h, 40 μM, 24 h) turned out to be 100 ± 2%; in series [2] (MDA-MB-231, 48 h, 40 μM, 48 h), 100 ± 3%; in series [2] (MDA-MB-231, 72 h, 40 μM, 72 h) it was 94 ± 1%. For the same molecule, the viability at 45 µM in series [2] (MDA-MB-231, 24 h, 24 h) came to 100 ± 2%; in series [2] (MDA-MB-231, 48 h, 48 h), 98 ± 2%; in series [2] (MDA-MB-231, 72 h, 72 h), 94 ± 2%. Also, the viability at 50 µM in series [2] (MDA-MB-231, 24 h, 24 h) was found to be 99 ± 2%; in series [2] (MDA-MB-231, 48 h, 48 h) it was 97 ± 3%; in series [2] (MDA-MB-231, 72 h, 72 h) it was 93 ± 2%. For the same molecule, the IC50 is over 200 µM in series [2] (MDA-MB-231, 24 h); 175 ± 3 µM in series [2] (MDA-MB-231, 48 h); 98 ± 3 µM in series [2] (MDA-MB-231, 72 h). In series [2] (MDA-MB-231, 35 μM, 72 h), the “Relative cell viability (% RCL)” value was found to be 96 ± 2%. In addition, the “% RCL” value in series [2] (MDA-MB-231, 40 μM, time not stated) is about 100%.
